Source: ChEMBL document CHEMBL1148250, “MexAB-OprM specific efflux pump inhibitors in Pseudomonas aeruginosa. Part 4: Addressing the problem of poor stability due to photoisomerization of an acrylic acid moiety” (2004)

Experiments:
Assay type in all cases: functional
Pseudomonas aeruginosa [1] = test: Minimum concentration (using PAM1723, a strain of Pseudomonas aeruginosa) required to reduce antibacterial activity by 4 folds for Levofloxacin
Pseudomonas aeruginosa [2] = test: Minimum concentration (using PAM1723, a strain of Pseudomonas aeruginosa) required to reduce antibacterial activity by 8 folds for Levofloxacin
Pseudomonas aeruginosa [3] = test: Minimum concentration (using PAM1723, a strain of Pseudomonas aeruginosa) required to reduce antibacterial activity by 8 folds for aztreonam in the absence of human serum albumin
Pseudomonas aeruginosa [4] = test: Minimum concentration (using PAM1723, a strain of Pseudomonas aeruginosa) required to reduce antibacterial activity by 8 folds for aztreonam in the presence 0.125% of human serum albumin

Row | SMILES | MPC4 (Pseudomonas aeruginosa [1]) | MPC8 (Pseudomonas aeruginosa [2]) | MPC8 (Pseudomonas aeruginosa [3]) | MPC8 (Pseudomonas aeruginosa [4])
1 | CC(C)(C)c1csc(NC(=O)c2ccn3c(=O)c(/C=C/c4nnn[nH]4)c(N4CCC[C@@H](OC(N)=O)C4)nc3c2)n1 | <0.25 µg/mL | 0.5 µg/mL | <0.25 µg/mL | 2 µg/mL
2 | CC(C)(C)c1csc(NC(=O)c2ccn3c(=O)c(/C=C/C(=O)O)c(N4CCC[C@@H](OC(N)=O)C4)nc3c2)n1 | <0.25 µg/mL | 1 µg/mL | 0.5 µg/mL | 1 µg/mL
3 | CC(C)c1csc(CCc2ccn3c(=O)c(/C=C/C(=O)O)c(N4CCCC(O)C4)nc3c2)n1 (stereo unspecified) | 0.5 µg/mL | 8 µg/mL | 8 µg/mL | 16 µg/mL
4 | CC(C)(C)c1csc(NC(=O)c2ccn3c(=O)c(/C=C/c4nn[nH]n4)c(N4CCC[C@H](OC(N)=O)C4)nc3c2)n1 | 0.5 µg/mL | 2 µg/mL | 1 µg/mL | 4 µg/mL
